From US20090222080A1, “MEDICAL STENT PROVIDED WITH INHIBITORS OF TUMOR NECROSIS FACTOR-ALPHA” (Picarus NV SA, priority 2005, published 2009) come the findings set out here.

For one test, the system named is ApoE*3-Leiden mice. Kind of test: mouse femoral artery cuff model of restenosis (neointima formation). It counts as in vivo. Conditions: cuff around the femoral artery for 14 days, cuffs loaded with 1% (w/w) thalidomide, p=0.005. From the text:
(§1) For the mouse study, ApoE*3-Leiden mice and TNF knockout mice were used to determine the impact of TNF-alpha on restenosis development after cuff placement around the femoral artery for 14 days. In another ApoE*3-Leiden mice group the cuffs were loaded with 1% (w/w) thalidomide, a TNF biosynthesis inhibitor.

The next test relates to TNF protein. The test is described as follows: vascular levels of TNF protein after local thalidomide in the mouse cuff model. The following applies: thalidomide administered locally (cuff). It counts as in vivo, mice. The method, then: as §1
Furthermore, the vascular levels of TNF protein were decreased when thalidomide was administered locally.

Take `O=C1CCC(N2C(=O)c3ccccc3C2=O)C(=O)N1` (centres unmarked) [thalidomide, 2-(2,6-dioxo-3-piperidinyl)-1H-isoindole-1,3(2H)-dione]: the neointima formation result in the test with ApoE*3-Leiden mice is given as “significantly less neointima formation”. For the same compound, the “vascular levels of TNF protein” value in the test on TNF protein was “decreased”.
